Our source for the IC50 values is ChEMBL document CHEMBL5723583, “Data for DCP probe BAY-9835” (2024).

For test [1], the target named is A disintegrin and metalloproteinase with thrombospondin motifs 7 (Homo sapiens, UniProt Q9UKP4). The test can be described thus: Biochemical enzymatic FRET assay (hADAMTS7) ( FRET substrate, HiLyteFluor-488 DELSSMVLELRGLRT-K(QXL520)-E-NH2 (custom synthesis by Anaspec) was used.).
In test [2] the target is A disintegrin and metalloproteinase with thrombospondin motifs 4 (Homo sapiens, UniProt O75173). Nature of the test: Biochemical enzymatic FRET assay (hADAMTS4) ( FRET substrate, HiLyteFluor-488 DELSSMVLELRGLRT-K(QXL520)-E-NH2 (custom synthesis by Anaspec) was used.).
A disintegrin and metalloproteinase with thrombospondin motifs 4, sequence (O75173 whole entry): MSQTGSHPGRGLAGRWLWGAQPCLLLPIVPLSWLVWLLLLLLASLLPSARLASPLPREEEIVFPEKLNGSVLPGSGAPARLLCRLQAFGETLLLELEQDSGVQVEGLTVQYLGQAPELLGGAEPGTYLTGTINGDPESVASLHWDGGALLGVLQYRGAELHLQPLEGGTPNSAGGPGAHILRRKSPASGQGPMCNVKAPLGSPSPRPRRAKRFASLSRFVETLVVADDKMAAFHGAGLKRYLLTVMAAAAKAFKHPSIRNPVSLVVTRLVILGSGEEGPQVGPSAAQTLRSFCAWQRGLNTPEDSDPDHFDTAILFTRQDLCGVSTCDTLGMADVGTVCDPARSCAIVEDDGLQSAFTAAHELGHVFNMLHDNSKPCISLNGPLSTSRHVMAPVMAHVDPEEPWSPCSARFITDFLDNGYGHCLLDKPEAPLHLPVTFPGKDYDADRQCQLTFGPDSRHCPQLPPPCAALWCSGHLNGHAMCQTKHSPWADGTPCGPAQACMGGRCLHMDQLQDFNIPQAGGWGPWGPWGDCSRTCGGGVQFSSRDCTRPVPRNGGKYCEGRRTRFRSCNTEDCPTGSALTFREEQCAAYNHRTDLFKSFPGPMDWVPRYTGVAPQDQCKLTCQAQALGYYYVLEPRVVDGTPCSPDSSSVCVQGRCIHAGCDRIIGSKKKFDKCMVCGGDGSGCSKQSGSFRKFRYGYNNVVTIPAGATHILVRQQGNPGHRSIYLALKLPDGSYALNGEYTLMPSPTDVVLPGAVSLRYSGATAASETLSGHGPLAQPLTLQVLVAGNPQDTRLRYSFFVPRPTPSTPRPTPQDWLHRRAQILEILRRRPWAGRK

A disintegrin and metalloproteinase with thrombospondin motifs 7, sequence (Q9UKP4 whole entry): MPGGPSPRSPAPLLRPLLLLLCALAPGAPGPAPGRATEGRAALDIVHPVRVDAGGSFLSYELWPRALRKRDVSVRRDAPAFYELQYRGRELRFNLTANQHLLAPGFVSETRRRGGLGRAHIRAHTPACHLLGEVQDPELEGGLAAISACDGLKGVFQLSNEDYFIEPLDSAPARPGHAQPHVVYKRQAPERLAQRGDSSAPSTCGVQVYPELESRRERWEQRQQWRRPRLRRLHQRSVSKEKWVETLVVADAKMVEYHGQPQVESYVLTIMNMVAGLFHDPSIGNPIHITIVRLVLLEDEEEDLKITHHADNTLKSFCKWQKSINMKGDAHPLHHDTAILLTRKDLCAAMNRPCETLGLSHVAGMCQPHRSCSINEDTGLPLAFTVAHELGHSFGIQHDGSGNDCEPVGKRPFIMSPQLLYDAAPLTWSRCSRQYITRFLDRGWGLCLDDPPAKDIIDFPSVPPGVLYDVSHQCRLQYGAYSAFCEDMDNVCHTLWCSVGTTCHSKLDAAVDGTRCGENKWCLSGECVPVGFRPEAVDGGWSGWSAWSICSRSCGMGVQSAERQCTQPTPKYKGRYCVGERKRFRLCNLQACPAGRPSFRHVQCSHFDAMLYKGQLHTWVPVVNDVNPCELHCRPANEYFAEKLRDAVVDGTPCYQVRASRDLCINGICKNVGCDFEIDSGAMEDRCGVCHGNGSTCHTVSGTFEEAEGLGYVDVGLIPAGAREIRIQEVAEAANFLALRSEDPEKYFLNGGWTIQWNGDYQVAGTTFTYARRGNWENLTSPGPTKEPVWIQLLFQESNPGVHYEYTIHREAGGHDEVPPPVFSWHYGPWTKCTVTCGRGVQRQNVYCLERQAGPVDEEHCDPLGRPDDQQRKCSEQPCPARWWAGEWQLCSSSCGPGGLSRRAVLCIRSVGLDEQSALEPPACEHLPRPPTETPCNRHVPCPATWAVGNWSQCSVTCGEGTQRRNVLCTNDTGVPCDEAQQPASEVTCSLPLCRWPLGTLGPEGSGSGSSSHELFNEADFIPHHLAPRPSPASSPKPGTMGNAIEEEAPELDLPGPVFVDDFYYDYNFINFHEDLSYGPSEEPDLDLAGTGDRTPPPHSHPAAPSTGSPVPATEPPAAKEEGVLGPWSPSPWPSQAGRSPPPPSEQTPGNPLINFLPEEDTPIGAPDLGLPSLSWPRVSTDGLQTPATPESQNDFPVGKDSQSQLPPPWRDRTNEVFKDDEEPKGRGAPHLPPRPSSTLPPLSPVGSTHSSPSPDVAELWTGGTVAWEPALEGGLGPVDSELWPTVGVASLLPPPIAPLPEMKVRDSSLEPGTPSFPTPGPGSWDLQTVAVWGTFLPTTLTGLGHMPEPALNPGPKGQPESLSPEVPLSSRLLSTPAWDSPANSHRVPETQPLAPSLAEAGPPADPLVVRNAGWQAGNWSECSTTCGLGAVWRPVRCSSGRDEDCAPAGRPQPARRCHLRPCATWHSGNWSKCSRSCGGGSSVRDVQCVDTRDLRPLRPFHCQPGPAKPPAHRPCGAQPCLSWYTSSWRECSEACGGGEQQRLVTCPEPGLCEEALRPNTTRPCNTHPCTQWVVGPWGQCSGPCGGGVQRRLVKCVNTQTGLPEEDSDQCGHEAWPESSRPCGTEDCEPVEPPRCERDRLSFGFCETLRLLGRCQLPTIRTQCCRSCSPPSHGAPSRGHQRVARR

Regarding `Cn1nccc1[C@@]1(CNC(=O)c2ccc(F)cc2-c2ccc(C(F)(F)F)cc2)NC(=O)NC1=O`, the 50% inhibitory concentration (IC50) is 23.4 µM (not active) in test [1] and > 50 µM (not active) in test [2].

The IC50 is the point on the concentration scale where inhibition reaches its midpoint. A low value points to inhibition by little substance.
